Legend:
[1] = tested on: Hep3B human HCC tumor xenografts; assay: Hep3B tumor xenograft in nude mice; format: in vivo, mouse
Procedure: Effects of 32-134D on Hep3B human HCC tumor xenografts. To analyze the effect of HIF inhibitor 32-134D on tumor xenograft growth, Hep3B cells were injected subcutaneously into immunodeficient mice and when tumors reached a volume of 150 mm3 (designated treatment day 1), the mice were treated with vehicle or 32-134D by daily intraperitoneal injection. […] Treatment with 32-134D for 17 days had no effect on mouse body weight (FIG. 6C), appearance or behavior. We treated additional mice with 32-134D and confirmed inhibition of tumor growth without effects on body weight (FIGS. 7A-C).
Protocols were approved by the Johns Hopkins University Animal Care and Use Committee and used in accordance with the NIH Guide for the Care and Use of Laboratory Animals (National Research Council, 2011). Female nude mice (NCI Athymic NCr-nu/nu) and male C57L/J mice were purchased from Charles River and The Jackson Laboratory, respectively. Hep3B (8×106) and Hepa1-6 (1×107) cells were implanted subcutaneously in 6- to 8-week-old mice, and tumor volume was calculated: V=abc×0.52. For Hep3B tumor studies, once tumors reached 100-150 mm3, mice were randomized into groups to receive daily intraperitoneal injection of either vehicle or 32-134D. For Hepa1-6 tumors, mice were randomized to receive treatment once tumors reached a size of 50-100 mm3. Tumors were harvested 4 hours after the last treatment.
Tumors were fixed in 10% formalin in phosphate buffer for 24 hours and placed in PBS the following day for paraffin embedding and sectioning. Anti-CD31 immunohistochemical staining, hematoxylin and eosin counterstaining, and whole slide scanning were performed by NDB Bio […].
Human (EPO, SCF, SDF1a, VEGFA) and mouse (Cxcl1, Cxcl2, Cxcl9, Cxcl10, Il6, Il10, IL22, Vegfa) protein concentrations in tumor homogenates were determined using ELISA kits (Table 4) from Novus Biologicals. Optical density was obtained at 450 nm (corrected for readings at 570 nm) using the VICTOR Nivo plate reader (PerkinElmer). Sample protein concentration was calculated by linear regression from a standard curve.

HIF-1α and HIF-2α = assay: HIF accumulation in hypoxic D120 hiPSC-derived retinal organoids; format: cell-based, human; conditions: 1% O2, 12 hours
Procedure: To assess the therapeutic potential of 32-134D for diabetic patients, human induced pluripotent stem cell (hiPSC)-derived 3-dimensional (3D) retinal organoids were treated with 32-134D. It has been previously reported that hiPSC-derived 3D retinal organoids cultured under hypoxic conditions (1% O2) behave similar to ischemic human retinal tissue with increased accumulation of both HIF-1α and HIF-2α (J. Zhang et al., J Clin Invest 131 (2021)). By 120 days of differentiation (D120), the inner and outer retinal layers are clearly defined (FIGS. 32A and 32B) and contain the precursors of the major retinal cell types, including outer retina photoreceptors (expressing recoverin), few newly differentiating bipolar cell precursors (lacking expression of recoverin and Pax6), amacrine cells (expressing high levels of Pax6), as well as Müller cells (expressing CRALBP; FIGS. 32C and 32D).
Retinal organoids: An hiPSC line derived from CD34+ cord blood was used in this study (A18945, ThermoFisher Scientific) (P. W. Burridge et al., 2011, PLoS One 6, e18293). Undifferentiated hiPSCs and derived retinal organoids were routinely tested for Mycoplasma contamination by PCR. Cell culture, retinal differentiation, and organoid formation were conducted as previously described (X. Zhong et al., 2014, Nat Commun 5, 4047). Retinal organoids at 120 days of differentiation were used for experiments. […]

OIR mice = assay: OIR mouse model, intraocular dosing; format: in vivo
Procedure: The efficacy of 32-134D following intraocular administration with 70 ng, as well as a lower dose (14 ng), in OIR mice at P12 (J. Zhang et al., J Clin Invest 131 (2021)) was determined.
The efficacy of 32-134D following IVT administration was also evaluated in the OIR model. At P14, pups were treated with a single intravitreal injection with 32-134D (14 or 70 ng) in 1 ul or with vehicle (DMSO) control. At P17, retinal flat mounts were stained with isolectin-B4 to examine the development of retinal neovascularization.
Intraocular injections: Intravitreal injections were performed with a PLI-100A Pico-liter Microinjector (Warner Instruments, Harvard Bioscience) using pulled-glass micropipettes. Each micropipette was calibrated to deliver a 1 μl volume on depression of a foot switch. The mice were anesthetized with a ketamine (100 mg/kg) and xylazine (5 mg/kg) mixture, and under a dissecting microscope, the sharpened tip of the micropipette was passed through the sclera just posterior to the limbus into the vitreous cavity and the foot switch was depressed, which caused fluid to penetrate into the vitreous space. Test compound was injected into the vitreous cavity in OIR and STZ mice for vascular permeability test, retinal vasculature and lysates for WB and qPCR analysis.
OIR mouse model: OIR experiments were performed as previously described (M. Rodrigues et al., 2013, Diabetes 62, 3863-3873). Briefly, C57BL/6 mice were placed in 75% O2 on P7. On P12, the mice were returned to room air and administered either by IP injection (digoxin and test compound) or by intravitreal injection. Mice with body weight less than 6 g at P17 were excluded from analysis. The data were collected from both males and females and the results combined, as there was no apparent difference between sexes. Representative images for selected time points from a minimum of three independent experiments are shown. Data from 3-8 pups were obtained at each time point.

## Brc1ccc2c(-c3csc(-c4c[nH]c5c(Br)cccc45)n3)c[nH]c2c1 [Compound 32-134D, 4-(6-bromo-1H-indol-3-yl)-2-(7-bromo-1H-indol-3-yl)thiazole]
[1]; 20 mg/kg daily intraperitoneal
  tumor xenograft growth: Partial growth inhibition
[1]; 40 mg/kg daily intraperitoneal
  tumor xenograft growth: maximal growth inhibition
[1]; 40 mg/kg/day
  mass of tumors harvested: significantly decreased
[1]; 80 mg/kg daily intraperitoneal
  tumor xenograft growth: maximal growth inhibition
[1]; mouse, in vivo
  blood vessel area in tumors (CD31 immunohistochemistry): markedly decreased
[1]; treatment for 17 days
  mouse body weight: no effect
[1]; tumor RNA, RT-qPCR
  tumor mRNAs encoding SCF, PGF, EPO, CD73, PDL1, VEGFA, SDF1: significant decrease
[1]; whole tumor lysates, ELISA
  EPO, SCF, SDF1 and VEGFA protein in tumors: significantly decreased expression
HIF-1α and HIF-2α
  accumulation of HIF-1α and HIF-2α protein: effectively prevented
OIR mice; single 14-ng intraocular injection, P13 and P14
  HIF-1α and HIF-2α protein accumulation in retina: marked reduction
OIR mice; single intraocular injection at P12, P17
  expression of mRNAs encoding VEGF, KDR and other HIF-regulated angiogenic mediators: decreased expression
OIR mice; single intravitreal injection 14 or 70 ng at P14, P17
  retinal neovascularization: significant decrease

Reference: patent US20250115595A1, “INHIBITORS OF HYPOXIA-INDUCIBLE FACTORS” (The Johns Hopkins University, priority 2021, published 2025)
